Data: patent publication US5155031A, “Use of pervanadate as an inhibitor of phosphotyrosine phosphatase” (priority 1990, dated 1992)
“Also recorded” adds a separate entry of the source. Read-outs that look alike come from different tables or passages of the source.

Experiments:
alkaline phosphatase = alkaline phosphatase catalyzed dephosphorylation of the lectin-purified insulin receptor; assay type: biochemical
Method: To do so, lectin-purified insulin receptor (6.0 fmol of insulin binding) was preincubated with 10^-7 M insulin for 60 min at 4° C. Phosphorylation was initiated by addition of [γ^-32 P]ATP, and the insulin receptor was immunoprecipitated by incubating with anti-insulin receptor antibody (140 μg of protein) for 4h at 4° C. followed by incubation with protein A-SEPHAROSE * beads for 1 h at 4° C. The immunoprecipitate was washed twice with 50 mM HEPES buffer, pH 7.6, containing 0.1% TRITON X-100 * detergent and 0.1% SDS and once with the above buffer without SDS. After being washed, the immunoprecipitate was incubated with or without the indicated concentrations of vanadate, H2 O2, or pervanadate in the presence or absence of a 15 units.mL solution of alkaline phosphatase for 60 min at 4° C. with vigorous shaking. This sample was washed twice with 50 mM HEPES buffer, pH 7.6, containing 0.1% TRITON X-100 * detergent and subjected to SDS-PAGE followed by radioautography as shown in FIG. 1. Densitometric scanning of the radioautographs was done with a ZEINER * soft laser scanning densitometer (Model SL-504-XL).

[1] = tested on: rat hepatocyte phosphotyrosine phosphatase; experiment: insulin receptor tyrosine dephosphorylation catalyzed by crude phosphotyrosine phosphatase from rat liver microsomes; assay type: biochemical
Method: Since vanadate and pervanadate may have different specificities for various phosphoprotein phosphatases, their inhibitory effects were separated tested on insulin receptor tyrosine dephosphorylation catalyzed by a crude preparation of phosphotyrosine phosphatase activity extracted from rat liver microsomes.
The samples were processed as in example 1, except that after being washed, the immunoprecipitate was incubated with or without 10^-4 M vanadate, 10^-4 M H2 O2 or 10^-4 m pervanadate in the presence or absence of an equal volume, 50 μL, of rat hepatocyte phosphotyrosine phosphatase (as described above) for 20 min at 30° C. with vigorous shaking.

tyrosine phosphatases = settings: cited from earlier work
insulin receptor [2] = target: T1, insulin receptor (Rattus norvegicus, UniProt P15127); experiment: Insulin Receptor Autophosphorylation Assay; assay type: biochemical; settings: 10^-3 to 10^-7 M, 15 min, 37° C.; WGA-purified adipocyte insulin receptors
T1 construct: Insulin receptors were solubilized and partially purified by WGA chromatography; endogenous in cells; host or cells: isolated rat adipocytes
Method: To elucidate further the mechanism of action of pervanadate, this compound was added in vitro to solubilized WGA-purified adipocyte insulin receptors.
Isolated rat adipocytes were incubated with different concentrations of pervanadate (10^-3 to 10^-7 M), 10 ng/mL (1.7×10^-9 M) insulin, or no additions for 15 min at 37° C. Insulin receptors were solubilized and partially purified by WGA chromatography. […] An aliquot of insulin receptor (5-10 fmol of insulin binding) was used in the autophosphorylation assay as described below, in the presence or absence of in vitro insulin, followed by SDS-PAGE and radioautography.
The Insulin Receptor Autophosphorylation Assay proceeded as follows: lectin-purified insulin receptor (5-10 fmol of insulin binding) was incubated with or without 10^-7 M insulin in a 50 mM HEPES buffer containing 8 mM MnCl2, 10 mM MgCl2, 270 μM dithiothreitol, and 10 μg/mL bovine serum albumin for 1 h at 4° C., in a total volume of 90 μL. The phosphorylation reaction was initiated by the addition of 10 μL of diluted [γ^-32 P]ATP (10 Ci/mmol) to a final concentration of 50 μM, and the reaction mixture was further incubated for 15 min at 4° C. […]

[3] = stability of the pervanadate solution; assay type: physicochemical; settings: after catalase 200 μg/mL to remove residual H2 O2
Method: The vanadate solution used in the examples presented below was prepared as described in Kadota et al. supra, to avoid changes in pH and the generation of colored decavanadate (orange-yellow) or vanadyl ion, VO^2+ (blue). The solution of pervanadate was prepared by mixing vanadate or vanadate containing substance with H2 O2 or a peroxide-containing substance (10^-3 M unless otherwise indicated) for 15 min at 22° C. This was followed by the addition of catalase, 200 μg/mL, to remove residual H2 O2. […] The concentration of pervanadate generated is denoted by the vanadate concentration added to the mixture.

insulin receptor [4] = settings: adipocytes, cited from earlier work
tyrosine kinase = settings: cited from earlier work
[5] = increasing concentrations, 15 units/mL alkaline phosphatase, 60 min, 4° C., SDS-PAGE, radioautography

T1 sequence (P15127 764-1383 limits assumed): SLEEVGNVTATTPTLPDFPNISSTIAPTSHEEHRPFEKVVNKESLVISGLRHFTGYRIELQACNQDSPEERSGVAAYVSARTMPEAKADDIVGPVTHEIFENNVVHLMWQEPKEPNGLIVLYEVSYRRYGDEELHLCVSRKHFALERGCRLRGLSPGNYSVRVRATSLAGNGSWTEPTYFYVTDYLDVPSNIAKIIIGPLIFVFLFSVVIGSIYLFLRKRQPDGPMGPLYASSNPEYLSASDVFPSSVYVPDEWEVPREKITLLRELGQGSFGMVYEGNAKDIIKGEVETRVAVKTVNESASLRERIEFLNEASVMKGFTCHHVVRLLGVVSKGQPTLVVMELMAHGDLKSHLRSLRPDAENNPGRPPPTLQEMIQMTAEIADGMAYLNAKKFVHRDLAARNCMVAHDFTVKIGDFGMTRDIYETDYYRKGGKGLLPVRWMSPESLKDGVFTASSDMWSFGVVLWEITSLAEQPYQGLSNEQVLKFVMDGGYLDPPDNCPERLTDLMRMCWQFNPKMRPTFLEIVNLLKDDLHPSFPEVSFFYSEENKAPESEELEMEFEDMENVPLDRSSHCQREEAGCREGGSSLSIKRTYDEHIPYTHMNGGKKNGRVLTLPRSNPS
T1 sequence (P15127 27-759 partner limits assumed): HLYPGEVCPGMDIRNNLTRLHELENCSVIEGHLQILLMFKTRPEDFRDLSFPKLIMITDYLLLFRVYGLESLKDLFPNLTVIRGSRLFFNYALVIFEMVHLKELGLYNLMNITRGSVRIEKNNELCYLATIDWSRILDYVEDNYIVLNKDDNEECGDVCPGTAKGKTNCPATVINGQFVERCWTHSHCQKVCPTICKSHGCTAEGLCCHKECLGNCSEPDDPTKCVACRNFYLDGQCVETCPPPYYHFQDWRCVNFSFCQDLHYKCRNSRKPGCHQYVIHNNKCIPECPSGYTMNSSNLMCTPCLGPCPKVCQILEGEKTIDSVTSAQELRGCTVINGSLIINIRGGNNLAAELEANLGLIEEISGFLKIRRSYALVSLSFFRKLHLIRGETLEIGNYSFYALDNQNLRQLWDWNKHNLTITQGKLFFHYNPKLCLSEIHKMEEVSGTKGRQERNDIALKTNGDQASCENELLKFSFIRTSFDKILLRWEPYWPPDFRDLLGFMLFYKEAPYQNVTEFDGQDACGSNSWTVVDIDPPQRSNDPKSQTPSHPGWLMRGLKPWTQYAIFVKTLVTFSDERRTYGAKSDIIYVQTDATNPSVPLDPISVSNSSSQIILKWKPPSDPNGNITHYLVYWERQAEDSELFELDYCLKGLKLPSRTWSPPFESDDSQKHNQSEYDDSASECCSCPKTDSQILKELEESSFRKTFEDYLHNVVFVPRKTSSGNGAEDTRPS

Compound	inhibition of alkaline phosphatase-catalyzed dephosphorylation of 32P-labeled insulin receptor β-subunit (alkaline phosphatase; 10^-3 M alone)	inhibition of insulin receptor tyrosine dephosphorylation catalyzed by rat hepatocyte phosphotyrosine phosphatase [1]	inhibition of alkaline phosphatase-catalyzed dephosphorylation of 32P-labeled insulin receptor β-subunit (alkaline phosphatase; [5])	inhibition of insulin receptor tyrosine dephosphorylation catalyzed by rat hepatocyte phosphotyrosine phosphatase ([1]; 10^-4 M, 20 min, 30° C.)	inhibition of tyrosine phosphatases (tyrosine phosphatases)	stimulation of insulin receptor autophosphorylation (insulin receptor [2])	time the peroxidized form of vanadate is stable without further addition of H2 O2 [3] [h]	in situ tyrosine phosphorylation of the insulin receptor (insulin receptor [4])	activation of the insulin receptor kinase (insulin receptor [4]; time course versus insulin)	stimulation of autophosphorylation of exogenous tyrosine kinase activity (tyrosine kinase)
OO [H2 O2, hydrogen peroxide, reference compound]	without effect	without effect								
[O]=[V]([O-])([O-])[O-] [vanadate]			inhibited the dephosphorylation of the ^32 P-labeled insulin receptor in a dose- dependent manner	inhibited dephosphorylation but with less efficacy	inhibit tyrosine phosphatases					
pervanadate			much less than that by vanadate alone; also recorded: does not inhibit	powerfully inhibited tyrosine dephosphorylation; also recorded: potent inhibitor; also recorded: more efficacious than vanadate		did not significantly stimulate autophosphorylation	2	maximal effects similar to that of insulin	activates the insulin receptor kinase but with a slower time course than insulin	does not either stimulate
